The results in this text go back to patent US20180127681A1, “GLYCOSYLATED AROMA- AND FRAGRANCE PRECURSORS AND FRAGRANCE PRODUCTS THAT CAN BE ACTIVATED” (Technische University Muenchen, priority 2015, published 2018).

Data set [1] in a line: Baking test 1, flour dough, release of geraniol by GC-MS. Format: physicochemical. As to conditions: for conversion of GG to geraniol, mean value: triplicate, from 3.2 μmol GG in 17 g bread. From the text:
Dough blanks of 10 g flour each were used as base. A negative control (flour, salt and water), three samples (added geranyl glucoside), a recovery (addition of geraniol to the bread prior to freezing according to a postulated conversion of glucoside of about 6% in order to determine the losses during the analytical process) and a control for geraniol in the glucoside solution (addition of an aliquot amount of glucoside only after the baking process to determine the content of geraniol). Several process steps are carried out according to standardized instructions, for each of the six blanks separately.
For a blank/blind test (1) 9.98 g well-mixed flour were weighed into a glass vessel and 0.2 g NaCl were added. The mixture was at first mixed in a dry state for 1 min in a farinograph (=kneader) and kneaded for 8 min after pipetting 6.4 ml dist. water. The dough was taken out quickly and weighed for a first time (E1). A first fermenting period of […] at 31° C. took place in a water vapor saturated proofing cabinet. After taking the dough out of the cabinet a second weighing (E2) took place as well as the homogenization. The ball-shaped blank was put into a round molder (“Rundwirker”) and turned for 10 turns with a superimposed pestle. It was drawn through a pasta/noodle roller, folded two times without inclusion of air and again turned in the round molder for 20 turns. Finally a forming by hand was performed. After the homogenization a second fermentation period of 35 min follows.
For samples (2a-c) additionally 10 μl of a geranyl glucoside (GG) solution (c=98 mg/ml) were quickly pipetted after the addition of water into the kneader.
Baking took place on a tray in the oven for 10 min at 230° C. Before and after putting the samples vapor was put into the closed oven, respectively (spraying and evaporating of 25 ml dist. H2O).
The baked bread was left standing for 60 min at room temperature and subsequently frozen in liquid nitrogen. Storage of the breads took place at −18° C. until the conditioning/preparation. […]

Data set [2] in a line: Baking test 2, simple yeast dough, release of geraniol by GC-MS. Format: physicochemical. As to the method: As samples dough blanks of 10 g flour each were used. A negative control (flour, salt, sugar, yeast and water), three samples (additionally geranyl glucoside) and a recovery (addition of geraniol to the bread before freezing according to a postulated conversion of glucoside of 6% in order to determine losses during the analytical procedure) were used. Several process steps were carried out according to standardized specifications, separate for each of the five blanks.
For a blank/blind test (i) 9.98 g well-mixed flour were weighed into a glass vessel. 0.2 g NaCl and 0.1 g sucrose were added and the mixture was put in the kneader. An addition of 0.7 g (cooled) baking yeast directly to the kneader followed. The mixture was at first kneaded in a dry state for 1 min and kneaded for 8 min after pipetting 6.3 ml dist. H2O. All further steps including the work-up and sample taking ware carried out according to the sample with flour dough (1). In the samples (2a-c) 10 μl GG-solution were pipetted directly after the addition of water to the kneader. The preparation of the recovery (3) was carried out analogous to the blind sample. After cooling for one hour 170 μl geraniol solution were injected herein into the breadcrumb directly before freezing with liquid nitrogen.

Data set [3] is described as follows: Baking test 3, standard yeast dough, release of geraniol by GC-MS. Format: physicochemical. As to the method:
As samples dough blanks of 10 g flour each were used. A negative control (flour, salt, sugar, fat, yeast, L-ascorbic acid and water), three samples (additionally geranyl glucoside) and a recovery (addition of geraniol to the bread before freezing according to a postulated conversion of glucoside of 6% in order to determine losses during the analytical procedure) were used. Several process steps were carried out according to standardized specifications, separate for each of the five blanks.
For a blank/blind test (i) 9.98 g well-mixed flour were weighed into a glass vessel. 0.2 g NaCl and 0.1 g sucrose and 0.1 g palm fat were added and the mixture was put in the kneader. An addition of 0.7 g (cooled) baking yeast directly to the kneader followed. The mixture was at first kneaded in a dry state for 1 min and kneaded for 8 min after pipetting 6.0 ml dist. H2O and 0.3 ml ascorbic acid solution.
All further steps including the work-up and sample taking ware carried out according to the sample with flour dough (1). In the samples (2a-c) 10 μl GG-solution were pipetted directly after the addition of water and ascorbic acid solution to the kneader. The preparation of the recovery (3) was carried out analogous to the blind sample. After cooling for one hour 170 μl geraniol solution were injected herein into the breadcrumb directly before freezing with liquid nitrogen.

Data set [4] can be described thus: Baking tests, dough of three kinds of bread with 100 ppm geranyl glucoside (summary). Format: physicochemical. As to the method: The proof-of-principle was now shown successfully for the example bread. Dough from three different kinds of bread was treated with the aroma precursor geranyl glucoside. […] This conversion is ascribed to the biggest extent to pyrolytic processes (about 5%) during the ten-minute baking process at 230° C. and partly on the enzyme-catalyzed hydrolytic processes (about […]) during the preparation of yeast-ß-glucosidase.

The subject of data set [5] is FaGTs1-13. Put plainly: In vitro glycosyltransferase assay with 14C UDP-glucose, substrates of FaGTs1-13. Format: biochemical, Fragaria x ananassa. The conditions noted are these: FaGTs1-13, FIG. 11B, 1 h at 30° C. From the text:
In the search for efficient biocatalysts which can be particularly used for the production of aroma glycosides the UGT gene family of plant species Vitis vinifera (grape vine) and Fragaria x ananassa (strawberry) was examined. For this at first the gene sequences were searched that are strongly expressed in the fruits of the plant species. These were subsequently isolated, expressed in the host organism Escherichia coli, and the enzymatic activity toward different potential substrates was determined. At least three of the coding nucleic acid sequences (FaGTs1-5, FaGTs1-13 and VvdGT13, see appended sequences) catalyze the formation of aroma glycosides very efficiently.
In FIG. 11 the determination of the enzyme activity of FaGTs1-5 and FaGTs1-13 is shown.
The reaction was started by adding UDP-glucose and stopped after incubation with 1 ml n-butanol. After vortexing for at least 15 s the reaction mixture was centrifuged 2 min at 12 000×g for separation of the phases, and 800 μl of the upper organic phase containing the product were now transferred to 2 ml scintillation cocktail (Ultima-Flo AF, PerkinElmer).

Several values for one entry are separate records, joined by “and”; a condition that tells them apart may be missing. Equal values may be shown once.

On to `CC(C)=CCC/C(C)=C/CO[C@@H]1O[C@H](CO)[C@@H](O)[C@H](O)[C@H]1O` [geranyl glucoside], for which the “content of geraniol in the baked bread” value in data set [1] came out at 1.40 mg/kg. Also, the “conversion of GG to geraniol, mean value” in data set [1] is 4.8%; in data set [1] (listed as GG) it was 4.8% and 4.9%; in data set [2] (samples 2a and 2c only, from 3.2 μmol GG in 17 g bread), 6.1%; in data set [3] (triplicate, from 3.2 μmol GG in 17 g bread), 5.7%. Further, the “content of geraniol in the bread” value is given as 1.77 mg/kg in data set [2] and 1.67 mg/kg in data set [3]. The “content of geraniol in bread” value in data set [4] (100 ppm added, conversion of 6%) is 1.7 mg/kg. In addition, the “conversion of glucoside to geraniol” value in data set [4] (addition of 100 ppm geranyl glucoside, ten-minute baking at 230° C.) was “about 6%”. In data set [4] (ten-minute baking process at 230° C.), the “conversion ascribed to pyrolytic processes” value was “about 5%”.
Take `CCC1OC(C)=C(O)C1=O` (centres unmarked) [homofuraneol]: in data set [5], the “conversion relative to furaneol” value is listed as 3 times.
